Laboratory results: patent US20230257383A1, “COMPOUND SERVING AS BTK INHIBITOR, PREPARATION METHOD THEREFOR, AND USE THEREOF” (CHENGDU HYPERWAY PHARMACEUTICALS CO., LTD., priority 2020, published 2023)

Key:
[1] = test system: TMD8 mouse subcutaneous xenograft tumor; assay: TMD8 pharmacodynamic model test; format: in vivo; conditions: same dose of 20 mg/kg, FIG. 2
Procedure: Test Example 7: TNMD8 Pharmacodynamic Model Test
Human diffuse large B-cell lymphoma TMD8 cells were monolayer-cultured in vitro in RPNHI1640 medium with […], 100 U/mL penicillin and 100 μg/mL streptomycin, in a 37° C., […] incubator. Routine digestion with trypsin-EDTA was performed twice a week for passaging. When the cell density was […] and the number reached the requirement, cells were harvested, counted and inoculated. 0.2 ml (1×10^7 cells) of TMVD8 cells (added with matrigel at a volume ratio of 1:1) were subcutaneously inoculated on the right back of each mouse. The mice were administered in groups when the average tumor volume reached about 137 mm^3. Tumor diameters were measured twice a week with vernier calipers. The tumor volume was calculated by the formula V=0.5 a×b^2, where a and b represent the long and short diameters of the tumor, respectively.

[2] = Liver microsome metabolic stability test (human); format: in vitro ADME; conditions: for microsomal CLint: read-out: CLint (μL/min/mg) Human
How it was run: (§1)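 Human or rat liver microsomes (working solution 0.5 mg/mL protein) were pre-incubated with compound at 37 °C. The reaction was started with NADPH regeneration system and quenched with ac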

[3] = Liver microsome metabolic stability test (rat); format: in vitro ADME; conditions: for microsomal CLint: read-out: CLint (μL/min/mg) Rat
How it was run: as §1

[4] = test system: NCI-N87 cell proliferation; assay: In vitro cell proliferation inhibitory activity test (CTG), NCI-N87; format: cell-based; conditions: Homo sapiens
Procedure: Test Example 4: In Vitro Cell Proliferation Inhibitory Activity Test
Cells were cultured in 1640 medium, added with 10% inactivated FBS and 1% double antibiotics, and cultured at 37° C. and 5% CO2.
(1) Cells were routinely cultured until the cell density was 80%-90%, and the cells were harvested when their number reached the requirement.
(2) Cells were resuspended with corresponding culture medium, counted, and prepared into cell suspension at appropriate density.
(3) The cell suspension was added to a 96-well plate, 100 μL per well.
(4) Cells were cultured overnight in a 37° C., 5% CO2 incubator.
(1) The compounds to be tested were diluted with DMSO to make a stock solution with a final concentration of 20 mM for later use.
(2) The stock solution was diluted 10 times from 20 mM to 2 mM with DMSO, and then diluted 3 times from 2 mM to 9 concentrations.
(3) The blank control wells were cells plus 0.5% DMSO, as high-reading control wells.
(4) Wells with no cells and only medium were used as low-reading control wells.
4: Cell treatment with compound
(1) 24 h after the cells were plated, the compounds acted alone, and 99 μL of growth medium was added to each well, followed by 1 μL of the compound prepared in step 3. The plate was shaken gently to mix uniformly, and then placed in a 37° C., 5% CO2 incubator.
(2) The cell plate was placed in an incubator for 72 h.
5: Detection by CTG method
(1) The cell plate to be tested was placed at room temperature for 30 min, and 100 μL of medium was discarded from each well.
(2) 100 μL of CTG reagent (CelltiterGlo kit) was added to each well, placed on a fast shaker for 2 min, and stood at room temperature in the dark for 30 min.
(3) The chemiluminescent signal value was read with the Envision instrument.
IC50 was calculated by using GraphPad Prism 8 software. The IC50 (half inhibitory concentration) of the compound was derived using the following nonlinear fitting formula, and the results are shown in the following table:
Y=Bottom+(Top−Bottom)/(1+10^((Log IC50−X)×HillSlope))
X: log value of compound concentration, Y: inhibition rate (% inhibition)
Inhibition rate (% inhibition)=(reading of high-reading control well-reading of compound well)/(reading of high-reading control well-reading of low-reading control well)×100

Compound	inhibitory effect against the tumor compared with Tirabrutinib [1]	microsomal CLint ([2]; liver microsomes) [µL/min/mg]	microsomal CLint ([3]; liver microsomes) [µL/min/mg]	% Remaining (60 min) Human ([2]; 60 min) [%]	half-life ([2]; liver microsomes, 0.5 mg/mL protein, read-out: T1/2 (min) Human) [min]	% Remaining (60 min) Rat ([3]; 60 min) [%]	half-life ([3]; liver microsomes, 0.5 mg/mL protein, read-out: T1/2 (min) Rat) [min]	IC50 [4] [nM]
Nc1nccn2c(C3CCC(CO)OC3)nc(-c3ccc(C(F)(F)c4ccccc4)cc3)c12 (single isomer, unassigned) [Example 111-P1]	significantly better inhibitory effect against the tumor than Tirabrutinib	–	–	–	–	–	–	–
Nc1nccn2c(C34CCC(CO)(CC3)OC4)nc(-c3ccc(C(F)(F)c4ccccc4)cc3)c12 [Example 125]	significantly better inhibitory effect against the tumor than Tirabrutinib	14.6	21.7	–	–	–	–	–
Nc1nccn2c(C34CCC(CO)(CC3)OC4)nc(-c3ccc(C(F)(F)c4ccccc4F)cc3)c12 [Example 145]	–	22.7	22.8	46.2	61.2	49.6	60.8	37.5
Nc1nccn2c(C34CCC(CO)(CC3)OC4)nc(-c3ccc(C(F)(F)c4cccc(Cl)c4F)cc3)c12 [Example 152]	–	45.9	102	–	–	–	–	43.4
Nc1nccn2c(C34CCC(CO)(CC3)OC4)nc(-c3ccc(C(F)(F)c4ccccc4Cl)cc3)c12 [Example 155]	–	41.7	62.2	–	–	–	–	–
Cc1cc(Nc2ncnc3ccc(NC4=NC(C)(C)CO4)cc23)ccc1Oc1ccn2ncnc2c1 [Tucatinib, reference compound]	–	43.7	34.9	–	–	–	–	26
